These results are taken from ChEMBL document CHEMBL1151193, “Ancistrotanzanine C and related 5,1'- and 7,3'-coupled naphthylisoquinoline alkaloids from Ancistrocladus tanzaniensis” (J Nat Prod, 2004).

Broadly, the IC50 is the point on the concentration scale where inhibition reaches its midpoint. A high value points to lower potency.

Series [1] concerns Plasmodium falciparum. In words: Antiplasmodial activity against chloroquine-resistant Plasmodium falciparum K1. The class given is functional, organism-based.
In series [2] the test system is Plasmodium falciparum. As to the kind of experiment: Antiplasmodial activity against chloroquine-sensitive Plasmodium falciparum 3D7. The class given is functional, organism-based.
The subject of series [3] is Trypanosoma cruzi. As to the kind of experiment: Antitrypanosomal activity against Trypanosoma cruzi. The class given is functional, organism-based.
The test system of series [4] is Trypanosoma brucei rhodesiense. In words: Antitrypanosomal activity against Trypanosoma brucei rhodesiense. The class given is functional, organism-based.
Series [5] has as its system L6. In words: Cytotoxicity against Leishmania donovani infected rat L6 cells. The class given is cell-based.
The nature of series [6]: Cytotoxicity against rat L6 cells. The class given is cell-based. The settings on record: read-out: MIC.
For series [7], the system named is Leishmania donovani. In words: Antileishmanial activity against Leishmania donovani. The class given is functional, organism-based.

≈ marks a conversion by molar mass, not a printed value.

Turning to `COc1cc2c(c(OC)c1-c1c(C)cc3cccc(OC)c3c1O)[C@@H](C)N(C)[C@@H](C)C2` [ANCISTROTECTORINE], the concentration for half-maximal inhibition (IC50) worked out at 0.7 µg/mL (≈ 1.66 µM) in series [1], 9.1 µg/mL (≈ 21.6 µM) in series [2], 4.3 µg/mL (≈ 10.2 µM) in series [3] and 4.3 µg/mL (≈ 10.2 µM) in series [4]. Moreover, the Activity entry in series [5] is recorded as “Toxic”. Moreover, in series [6], the MCC stood at 19.9 µg/mL.

Take `O=C(Cn1ccnc1[N+](=O)[O-])NCc1ccccc1` [BENZNIDAZOLE]: 0.29 µg/mL (≈ 1.11 µM) corresponded to half-maximal inhibition in series [3] (IC50).

Turning to `COc1c(-c2c(C)cc3cccc(OC)c3c2O)c(O)cc2c1[C@@H](C)N(C)[C@@H](C)C2` [ANCISTROTANZANINE C], the half-maximal inhibitory concentration (IC50) in series [1] amounted to 0.1 µg/mL (≈ 0.245 µM); in series [2] it was 4.2 µg/mL (≈ 10.3 µM); in series [3], 14 µg/mL (≈ 34.4 µM); in series [4] it was 1.3 µg/mL (≈ 3.19 µM). Further, in series [5], the Activity result is recorded as “Toxic”. In addition, in series [6], the MCC was 40.7 µg/mL.

Take `COc1cc(OC)c(-c2c(C)cc(OC)c3c(OC)cccc23)c2c1C(C)=N[C@@H](C)C2`: the concentration for half-maximal inhibition (IC50) turned out to be 2.2 µg/mL (≈ 5.24 µM) in series [1]; 5.4 µg/mL (≈ 12.9 µM) in series [2]; 60.5 µg/mL (≈ 144 µM) in series [3]; 30 µg/mL (≈ 71.5 µM) in series [7]; 5.2 µg/mL (≈ 12.4 µM) in series [4]. The MCC in series [6] is over 90 µg/mL.

As for `Nc1nc(N)nc(Nc2ccc([As]3SCC(CO)S3)cc2)n1` (configuration not stated) [MELARSOPROL], in series [4], it took 0.0031 µg/mL to reach half-maximal inhibition (IC50).

Consider `COc1cc2c(c(OC)c1-c1c(C)cc3cccc(OC)c3c1O)C(C)=N[C@@H](C)C2` [ANCISTROCLADIDINE], for which the IC50 stood at 0.3 µg/mL (≈ 0.74 µM) in series [1]; 1.9 µg/mL (≈ 4.69 µM) in series [2]; 23.4 µg/mL (≈ 57.7 µM) in series [3]; 2.9 µg/mL (≈ 7.15 µM) in series [7]; 2 µg/mL (≈ 4.93 µM) in series [4]. In series [6], the MCC is 28.3 µg/mL.

Turning to `COc1cc(OC)c2c(c1-c1c(C)cc(OC)c3c(OC)cccc13)C[C@H](C)N(C)[C@H]2C` [O,N-Dimethylancistrocladine], the half-inhibitory concentration (IC50) in series [1] came to 3.6 µg/mL (≈ 8.27 µM); in series [2], 34.1 µg/mL (≈ 78.3 µM); in series [3], 65.3 µg/mL (≈ 150 µM); in series [4], 5.4 µg/mL (≈ 12.4 µM). Moreover, the Activity entry in series [5] is “Toxic”. Moreover, in series [6], the MCC amounted to 42.9 µg/mL.
